Source: paper PMC5007466, “VCP recruitment to mitochondria causes mitophagy impairment and neurodegeneration in models of Huntington's disease” (Nature Communications, 2016)

Key:
[1] = test system: HdhQ111 / HdhQ7 mouse striatal cells; experiment: Mitochondrial membrane potential (TMRM), mouse striatal cells; assay type: cell-based
Experimental: Immortalized striatal cell lines HdhQ111 mutant and HdhQ7 wt cells were obtained from the CHDI Foundation. Cells were cultured in DMEM supplemented with 10% FBS, 100 μg/ml penicillin, 100 μg ml^−1 streptomycin, and 400 μg ml^−1 G418. Cells were grown at 33 °C in a 5% CO2 incubator. Cells within 14 passages were used in all experiments.
For silencing Htt and VCP in HD striatal cells, control siRNA, mouse Htt and mouse VCP siRNA were purchased from Thermo Fisher Scientific. HdhQ7 and HdhQ111 cells were transfected either with control siRNA, or Htt or VCP siRNA using TransIT-TKO Transfection Reagent (Mirus Bio, LLC), according to the manufacturer's instructions. The sequences for the siRNAs used in this study are as follows: mouse Htt, 5′-[…]-3′; Mouse VCP, 5′-GAGAGCAACCUUCGUAAG-3′; control non-targeting siRNA, 5′-TTCTCCGAACGTGTCACGT-3′.
To determine mitochondrial mass in cultures, cells were stained with antibodies against Tom20 or stained with Mitotracker green. The fluorescent density of Tom20 (1:500) or mitotracker green was quantitated using NIH Image J software. To measure the membrane potential of mitochondria in cultures, cells were incubated with 0.25 μM tetra-methyl rhodamine (Invitrogen Life Science) for 20 min at 37 °C. To determine lysosomal activity, cells were incubated with Lyso-ID Red dye (Enzo Life Science) for 30 min at 37 °C. The images were visualized by microscope and quantitation of the density of red fluorescence was carried out using NIH ImageJ software. For immunocytochemistry study, at least 100 cells per group were counted and quantitated by an observer blind to experimental conditions.

[2] = LC/MS detection of HV-3 in mouse brain and plasma; assay type: in vivo; conditions: LC/MS m/z 506.4
From the text: The new figures above and related figure legends have all been added to the revised manuscript. The related discussion has been added on page 17 line 2 and line 5. The methods of ITC and immunoprecipitation with biotin-peptides have been added to the Method section (see pages 21-23) of […]
Comment 3: The in vivo use of TAT-tagged HV-3 peptide lacks essential PK/PD data. What is the PK/PD of the reagent with their osmotic pump delivery? The data in Supplemental Fig. 5B is simply unacceptable, with different background between control and HV-3, and with only a few cells shown and without any quantitation. Is there any long-term toxicity of such delivery? Did they measure adaptive immune response to the HV-3 peptide? And if there is such a response, do the immune reactions rather than inhibition of mHTT-VCP interactions underlying therapeutic effects? Response: For the analysis of PK/PD, we have to subcontract with bio-company. The cost will be a minimum of $80,000. Due to limited funds, we cannot afford such an expensive experiment. Working with the Mass Spectrometry Core Facility at Cleveland Clinic Foundation Research Center, we attempted to determine the concentration of HV-3 after treatment in mice by pump implantation. […]
by protein precipitation methods (see figure below). […]
proteins in mice after treatment. The data seem to be consistent with our findings that HV-3 binds to VCP. Because of current technical constraints to dissociate peptide from the binding proteins, we were not able to test the accurate concentration of the peptide HV-3 in brain tissues and plasma. Therefore, we […]
We would appreciate it if the reviewer could understand.
Based on the reviewer’s comment, in the revised manuscript, we removed the original supplemental […]
Regarding toxicity of HV3, we performed toxicity analysis of HV-3 in mice at Stanford University. […]
ions in positive electrospray ionization and the ion at 5 charged (m/z 506.4) has the highest intensity on the Shimadzu LC/MS 8050. (B) HV-3 at 5 charged (m/z 506.4) in positive electrospray ionization was monitored. […]

Structure (SMILES): CSCC[C@H](NC(=O)[C@@H](NC(=O)[C@H](CC(C)C)NC(=O)[C@@H](NC(=O)[C@H](Cc1c[nH]cn1)NC(=O)CCCCCNC(=O)[C@H](CCCNC(=N)N)NC(=O)[C@H](CCCNC(=N)N)NC(=O)[C@H](CCCNC(=N)N)NC(=O)[C@H](CCC(N)=O)NC(=O)[C@H](CCCNC(=N)N)NC(=O)[C@H](CCCNC(=N)N)NC(=O)[C@H](CCCCN)NC(=O)[C@H](CCCCN)NC(=O)[C@H](CCCNC(=N)N)NC(=O)CNC(=O)[C@@H](N)Cc1ccc(O)cc1)C(C)C)C(C)C)C(=O)N[C@@H](CS)C(=O)N[C@@H](C)C(=O)N[C@H](C(N)=O)[C@@H](C)O [HV-3]
- mitochondrial membrane potential ([1]; HdhQ111 cells, HV-3 3 uM/day for 3 days versus TAT): markedly improved the mitochondrial membrane potential
- mitochondrial membrane potential in presence of VCP siRNA ([1]; HdhQ111 cells, HV-3 + VCP siRNA): no additional protection on the MMP
- mitochondrial membrane potential, wt ([1]; wt counterparts of the HD models): only minor effects
- HV-3 in supernatant of plasma after protein precipitation ([2]; mice, pump implantation): not detectable
- HV-3 in total brain lysates, plasma and precipitated plasma proteins ([2]; mice, pump implantation): can be detected
- HV-3 in brain total lysates over time ([2]; mouse brain total lysates without protein precipitation, legend prints HV-3 (1000 nM)): day, one week and two weeks after treatment
